In publication PMC6471485, “Selective Inhibitors of a Human Prolyl Hydroxylase (OGFOD1) Involved in Ribosomal Decoding” (Chemistry (Weinheim an Der Bergstrasse, Germany), 2019):
pIC50: −log10 of the molar value. Entries after “also recorded” stand apart in the source; their conditions may differ.

Columns and labels:
PHD2 = molecular target: T1, PHD2 (Homo sapiens, UniProt Q9GZT9); test: 2OG displacement from PHD2 by CPMG-edited 1H NMR; assay type: binding; settings: 10 µM 2OG, 10 µM PHD2, 70 µM inhibitor
T1 construct: 181-426 or OGFOD1
Description: total echo time of 40 ms, a relaxation delay of 2 s, with 256 scans. Water suppression was achieved by presaturation. Samples contained 30 µM apo-PHD2181-426 or OGFOD1, supplemented with 60 µM Zn(II), 30 µM of inhibitor, all in 50 mM Tris-d11, pH 7.5, 10 % D2O, […]
wLOGSY Binding Experiments: For water-ligand observed gradient spectroscopy (wLOGSY) analyses, typical experimental parameters were the following: mixing time, 1 s; relaxation delay, 2 s; number of transients, 512. Solvent excitation was achieved using a 16-ms 180° selective rectangular shape pulse with 1,000 points (Squa100.1000) set at the H2O frequency. […]
Competition Experiments by 2OG Displacement: 2OG displacement assays[12] were performed using CPMG-edited 1H spectra. […] The 2OG methylene resonance at 2.35 ppm was monitored. […]
HeLa cells were cultured in DMEM media supplemented with 10 % fetal bovine serum, 4 mM L-glutamine, 100 U/mL penicillin, and 100 µg/mL streptomycin. […] Cell extracts were analyzed by SDS-PAGE, electroblotted onto PVDF membranes (Millipore) and probed with anti-HIF-1α antibody (clone 54, BD Transduction Laboratories) at 1:1000 dilution for 1 h at room temperature. […] Target proteins were detected with SuperSignal Chemiluminescent […]
Figure S15. Single-concentration qualitative 2OG displacement as monitored by CPMG-edited 1H NMR spectroscopy. […]

PHD2181-426 [1] = molecular target: T2, PHD2181-426 (Homo sapiens, UniProt Q9GZT9); test: wLOGSY NMR binding experiment with PHD2; settings: 400 µM inhibitor, 50 µM PHD2
T2 construct: 181-426 (1 µM) was

[2] = tested on: PHD enzymes in HeLa cells; test: HIFα Western blot in HeLa cells (activity of PHD enzymes in cells); assay type: cell-based, human; settings: HeLa cells treated 5 h, anti-HIF-1α Western blot
Description: supplemented with 80 µM Zn(II), 70 µM of inhibitor, all in 50 mM Tris-d11, pH 7.5, 10 % D2O, […]
Cell Culture and Immunoblotting
HeLa cells were cultured in DMEM media supplemented with 10 % fetal bovine serum, 4 mM L-glutamine, 100 U/mL penicillin, and 100 µg/mL streptomycin. Cells were treated with the indicated compounds, prepared in 1% DMSO, for 5 h. Following a PBS buffer rinse, cells were lysed in urea/SDS buffer supplemented with 1 mM dithiothreitol. Cell extracts were analyzed by SDS-PAGE, electroblotted onto PVDF membranes (Millipore) and probed with anti-HIF-1α antibody (clone 54, BD Transduction Laboratories) at 1:1000 dilution for 1 h at room temperature. The HRP-conjugated secondary antibody was then applied at room temperature for 1 h. Target proteins were detected with SuperSignal Chemiluminescent […]
ADMET in vitro Predictors
S9 liver microsome stability assays and MDCK-MDR1 efflux assays were carried out for CCT3 and CCT4 by Cyprotex (UK). Additional details are provided later in the Supporting

PHD2181-426 [3] = molecular target: T2, PHD2181-426; test: PHD2 inhibition assay: hydroxylation of HIF-1a CODD peptide by MALDI-TOF MS; assay type: biochemical
Description: OGFOD1 inhibition assays were performed by determining the extent of hydroxylation of a 20mer fragment of human ribosomal protein S23 (RPS23) containing residues 51-70 (H2N- […]
-CONH2) by matrix-assisted laser desorption/ionization time-of-flight mass spectrometry (MALDI-TOF MS) using a Waters Micromass MALDI micro MX mass spectrometer and MassLynx 4.1, as previously described.[7,8] The optimized hydroxylation assay involved incubation of OGFOD1 (1 µM) with inhibitor (1 % v/v in DMSO) in the presence of (NH4)2Fe(SO4)2 (50 µM), the disodium salt of 2-oxoglutarate (25 µM), […]
OGFOD1 was pre-incubated with inhibitor for 5 min before initiation of the reaction via the addition of the other reagents. Reactions were quenched with formic acid (1 % v/v) after 15 min. Samples were prepared for MALDI using α-cyano-4-hydrocinnamic acid (CHCA; prepared in 50 % acetonitrile) as a matrix. Dose-responses were assessed in 8-point triplicates, normalized to a no enzyme negative control and a no inhibitor positive control. Non-linear regression analysis was performed using Prism (GraphPad).
PHD2181-426 inhibition assays were performed by determining the extent of hydroxylation of a HIF-1a CODD peptide substrate (HIF-1a residues 556-574), using MALDI-TOF MS as described with OGFOD1.[8] The optimized hydroxylation assay involved incubation of PHD2181-426 (1 µM) with inhibitor (1 % v/v in DMSO) in the presence of (NH4)2Fe(SO4)2 (10 µM), the disodium salt of 2-oxoglutarate (60 µM), sodium ascorbate (100 µM), and HIF-1aCODD 556-574 (50 µM) in HEPES (50 mM, pH 7.5) at 37 °C for 15 min. The FIH assay employed MALDI-TOF MS detection of hydroxylation. Reactions consisted of FIH […]
(50 nM), ankyrin peptide (50 µM; […]), the disodium salt of 2- […]
oxoglutarate (100 µM), sodium ascorbate (100 µM), and (NH4)2Fe(SO4)2 (10 µM), and […]

T2 sequence (Q9GZT9 181-426 limits assumed): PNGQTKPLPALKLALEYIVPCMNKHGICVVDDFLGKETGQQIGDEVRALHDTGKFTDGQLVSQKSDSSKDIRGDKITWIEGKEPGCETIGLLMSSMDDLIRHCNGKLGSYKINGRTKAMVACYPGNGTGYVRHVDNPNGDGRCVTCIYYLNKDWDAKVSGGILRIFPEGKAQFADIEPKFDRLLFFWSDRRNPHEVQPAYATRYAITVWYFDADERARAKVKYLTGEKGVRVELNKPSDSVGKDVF
T1 sequence (Q9GZT9 181-426 limits assumed): as above

| Structure (SMILES) | displacement of bound 2OG from PHD2, in words (PHD2) | binding to PHD2 by wLOGSY NMR, in words (PHD2181-426 [1]; listed as CCT4) | HIFα stabilization in HeLa cells, in words [2] | pIC50 (PHD2181-426 [3]) | binding to PHD2 by wLOGSY NMR, in words (PHD2181-426 [1]; listed as CCT3) | inhibition of PHD2 hydroxylation activity, in words (PHD2181-426 [3]; inhibitor 100 µM, PHD2181-426 1 µM (Figures S2, S8)) |
| --- | --- | --- | --- | --- | --- | --- |
| Cn1c(O)c(C(=O)CCc2cccs2)c(=O)n(C)c1=O [compound 42] | not from that of PHD2 | weaker; also recorded: only weak binding to PHD2 | did not stabilize HIFα | < 4.00 | – | – |
| Cn1c(O)c(C(=O)CCc2ccccc2)c(=O)n(C)c1=O [compound 26] | not from that of PHD2 | – | did not stabilize HIFα | < 4.00 | weaker; also recorded: only weak binding to PHD2 | Lack of inhibition |
